Among the data in PubChem BioAssay (NCI) are TGI values, retold here.

Some test systems named below: ACHN renal; BT-549 breast; CCRF-CEM leukemia; HCT-15 colon; HOP-92 NSCLC; HS 578T breast; IGROV1 ovarian; MALME-3M melanoma; MCF7 breast; MDA-MB-435; MOLT-4 leukemia; NCI-H23 lung; OVCAR-5 ovarian; RPMI-8226 leukemia; SK-MEL-2 melanoma; SK-MEL-28 melanoma; SN12C renal; SR leukemia; T-47D breast; U251 CNS.
Common to all, as to assay: NCI-60 cell line screen, 48 h

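Where inhibition never reached the appropriate level, the endpoint shown equals the highest concentration tested. Otherwise, values were interpolated linearly from a five-concentration, 48-hour dose response in 96-well plates. TGI: total growth inhibition.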 Where only a bound is given, the exact number is not on record here.

For the compound `CC1=NN(C(=O)CC(=O)Nc2cccc(C)c2)C(=O)C1N=Nc1ccc(S(=O)(=O)c2ccc(N=NC3C(=O)N(C(=O)CC(=O)Nc4cccc(C)c4)N=C3C)cc2)cc1` (stereo not given), the TGI with ACHN renal, with BT-549 breast, in the experiment on CCRF-CEM leukemia, with HCT-15 colon, in the experiment with HOP-92 NSCLC and in the experiment on HS 578T breast was > 100 µM in each case. Further, the TGI with IGROV1 ovarian, in the experiment with MALME-3M melanoma, in the experiment on MCF7 breast, in the experiment on MDA-MB-435, in the experiment on MOLT-4 leukemia and in the experiment on NCI-H23 lung was > 100 µM in each case. Moreover, the TGI in the experiment on OVCAR-5 ovarian, in the experiment on RPMI-8226 leukemia, in the experiment with SK-MEL-2 melanoma, in the experiment with SK-MEL-28 melanoma, in the experiment with SN12C renal and with SR leukemia was > 100 µM in each case. The TGI in the experiment on T-47D breast and in the experiment on U251 CNS was > 100 µM each time.

On to `C=C(C)[C@@H]1CCC2=C[C@H](OC2=O)[C@@]2(C)C[C@@H]2C(=O)/C=C(/C)C(=O)[C@H]1OC(C)=O`, for which the TGI is > 48.2 µM in the experiment with ACHN renal; 27.4 µM in the experiment with BT-549 breast; > 25.2 µM in the experiment on CCRF-CEM leukemia; > 55.7 µM with HCT-15 colon; > 93.3 µM in the experiment on HOP-92 NSCLC; 88.6 µM in the experiment on HS 578T breast. Besides, the TGI was > 69.3 µM with IGROV1 ovarian; 29.8 µM with MALME-3M melanoma; > 37.6 µM in the experiment on MCF7 breast; > 65.2 µM in the experiment with MDA-MB-435; > 39.4 µM with MOLT-4 leukemia; > 58.5 µM with NCI-H23 lung. Also, the TGI was 43.9 µM in the experiment on OVCAR-5 ovarian; 23.5 µM with RPMI-8226 leukemia; > 80.1 µM in the experiment with SK-MEL-2 melanoma; 52.9 µM with SK-MEL-28 melanoma; > 56.9 µM with SN12C renal; > 37.8 µM in the experiment with SR leukemia. Also, the TGI in the experiment with T-47D breast was 26.1 µM; in the experiment on U251 CNS it was > 68 µM.

As for `Cn1c(=O)cc(N=Nc2ccc(Cl)c(Cl)c2)[nH]c1=O`, the TGI with ACHN renal stood at 47.4 µM; with BT-549 breast, 96.2 µM; with CCRF-CEM leukemia it was 68.8 µM; in the experiment with HCT-15 colon, 38.9 µM; in the experiment on HOP-92 NSCLC it was 80.4 µM; with HS 578T breast, 94 µM. Moreover, the TGI in the experiment with IGROV1 ovarian was > 100 µM; in the experiment with MALME-3M melanoma it was 32.6 µM; in the experiment with MCF7 breast, 59.8 µM; in the experiment with MDA-MB-435 it was 40.5 µM; with MOLT-4 leukemia, 61 µM; in the experiment on NCI-H23 lung, 86.5 µM. Moreover, the TGI in the experiment with OVCAR-5 ovarian is > 100 µM; in the experiment on RPMI-8226 leukemia, 71.1 µM; in the experiment with SK-MEL-2 melanoma, 45.2 µM; in the experiment on SK-MEL-28 melanoma it was 57.5 µM; in the experiment with SN12C renal, > 100 µM; in the experiment on SR leukemia, 54 µM. The TGI was > 100 µM with T-47D breast and 56.3 µM in the experiment with U251 CNS.

For `CC(=O)OC[C@@]1(C)[C@@H]2[C@@H]3[C@@]4(CO[C@]3(C)C(=O)[C@@]3(O)C[C@H](C)[C@H](OC(C)=O)[C@@H]3[C@H]4OC(C)=O)[C@H](OC(=O)c3ccccc3)C[C@@H]21`, the TGI in the experiment with ACHN renal, in the experiment on BT-549 breast, in the experiment on CCRF-CEM leukemia, with HCT-15 colon, in the experiment with HOP-92 NSCLC and with HS 578T breast was > 100 µM each time. For the same compound, the TGI in the experiment with IGROV1 ovarian, with MALME-3M melanoma, in the experiment on MCF7 breast, in the experiment with MDA-MB-435, with MOLT-4 leukemia and with NCI-H23 lung was > 100 µM in each case. For the same compound, the TGI in the experiment on OVCAR-5 ovarian, in the experiment with RPMI-8226 leukemia, in the experiment on SK-MEL-2 melanoma, in the experiment on SK-MEL-28 melanoma, in the experiment on SN12C renal and with SR leukemia was > 100 µM each time. In addition, the TGI in the experiment on T-47D breast and in the experiment on U251 CNS was > 100 µM in each case.
